Results: PubChem BioAssay AID1259407 (Chemical Carcinogenesis Research Information System (CCRIS), 2018)
Activity calls are given as the source filed them. The rule behind the calls is not given here.

System: CCRIS mutagenicity, Ames/micronucleus/aberration tests
Assay: CCRIS mutagenicity studies
[1] = Test System: AMES SALMONELLA TYPHIMURIUM, Strain/Indicator: TA98, Metabolic Activation: NONE, Method: PREINCUBATION
[2] = Test System: AMES SALMONELLA TYPHIMURIUM, Strain/Indicator: TA100, Metabolic Activation: NONE, Method: PREINCUBATION
[3] = Test System: AMES SALMONELLA TYPHIMURIUM, Strain/Indicator: TA1535, Metabolic Activation: NONE, Method: PREINCUBATION

O=C(O)c1cc([N+](=O)[O-])cc([N+](=O)[O-])c1
mutagenic call [1]: active; positive
mutagenic call (Test System: AMES SALMONELLA TYPHIMURIUM, Strain/Indicator: TA98, Metabolic Activation: RAT, LIVER, S-9, KANECHLOR 500, Method: PREINCUBATION): active; positive
mutagenic call [2]: active; positive
mutagenic call (Test System: AMES SALMONELLA TYPHIMURIUM, Strain/Indicator: TA100, Metabolic Activation: RAT, LIVER, S-9, KANECHLOR 500, Method: PREINCUBATION): active; positive

CCCOC(C(=O)OC1CCN(C)CC1)(c1ccccc1)c1ccccc1
mutagenic call [1]: inactive; negative
mutagenic call (Test System: AMES SALMONELLA TYPHIMURIUM, Strain/Indicator: TA98, Metabolic Activation: RAT, LIVER, S-9, PHENOBARBITAL AND 5,6-BENZOFLAVONE, Method: PREINCUBATION): inactive; negative
mutagenic call [2]: inactive; negative
mutagenic call (Test System: AMES SALMONELLA TYPHIMURIUM, Strain/Indicator: TA100, Metabolic Activation: RAT, LIVER, S-9, PHENOBARBITAL AND 5,6-BENZOFLAVONE, Method: PREINCUBATION): inactive; negative
mutagenic call [3]: inactive; negative
mutagenic call (Test System: AMES SALMONELLA TYPHIMURIUM, Strain/Indicator: TA1535, Metabolic Activation: RAT, LIVER, S-9, PHENOBARBITAL AND 5,6-BENZOFLAVONE, Method: PREINCUBATION): inactive; negative
mutagenic call (Test System: AMES SALMONELLA TYPHIMURIUM, Strain/Indicator: TA1537, Metabolic Activation: NONE, Method: PREINCUBATION): inactive; negative
mutagenic call (Test System: AMES SALMONELLA TYPHIMURIUM, Strain/Indicator: TA1537, Metabolic Activation: RAT, LIVER, S-9, PHENOBARBITAL AND 5,6-BENZOFLAVONE, Method: PREINCUBATION): inactive; negative
mutagenic call (Test System: E. COLI, Strain/Indicator: WP2 UVRA, Metabolic Activation: NONE, Method: PREINCUBATION): inactive; negative
mutagenic call (Test System: E. COLI, Strain/Indicator: WP2 UVRA, Metabolic Activation: RAT, LIVER, S-9, PHENOBARBITAL AND 5,6-BENZOFLAVONE, Method: PREINCUBATION): inactive; negative

CN(C)N
mutagenic call (End Point: IN VITRO CHROMOSOMAL ABERRATIONS, Test System: CHL CELLS, Metabolic Activation: NONE): active; positive (structural changes)
mutagenic call (End Point: IN VITRO CHROMOSOMAL ABERRATIONS, Test System: CHL CELLS, Metabolic Activation: RAT, LIVER, S-9, SODIUM PHENOBARBITAL AND 5,6-BENZOFLAVONE): active; positive (structural changes)
mutagenic call [1]: inactive; negative
mutagenic call (Test System: AMES SALMONELLA TYPHIMURIUM, Strain/Indicator: TA98, Metabolic Activation: RAT LIVER S-9, PHENOBARBITAL AND BETA-NAPHTHOFLAVONE, Method: PREINCUBATION): inactive; negative
mutagenic call [2]: inactive; negative
mutagenic call (Test System: AMES SALMONELLA TYPHIMURIUM, Strain/Indicator: TA100, Metabolic Activation: NONE, Method: STANDARD PLATE): inactive; negative
mutagenic call (Test System: AMES SALMONELLA TYPHIMURIUM, Strain/Indicator: TA100, Metabolic Activation: RAT LIVER S-9, PHENOBARBITAL AND BETA-NAPHTHOFLAVONE, Method: PREINCUBATION): inactive; negative
mutagenic call (Test System: AMES SALMONELLA TYPHIMURIUM, Strain/Indicator: TA100, Metabolic Activation: RAT, LIVER, S-9, AROCLOR 1254 (1 OR 2 MG), Method: STANDARD PLATE): inactive; negative
mutagenic call (Test System: AMES SALMONELLA TYPHIMURIUM, Strain/Indicator: TA100, Metabolic Activation: RAT, LIVER, S-9, AROCLOR 1254, Method: STANDARD PLATE): inactive; negative
mutagenic call (Test System: AMES SALMONELLA TYPHIMURIUM, Strain/Indicator: TA102, Metabolic Activation: NONE, Method: PREINCUBATION): inactive; negative
mutagenic call (Test System: AMES SALMONELLA TYPHIMURIUM, Strain/Indicator: TA102, Metabolic Activation: NONE, Method: STANDARD PLATE): inactive; negative
mutagenic call (Test System: AMES SALMONELLA TYPHIMURIUM, Strain/Indicator: TA102, Metabolic Activation: RAT LIVER S-9, PHENOBARBITAL AND BETA-NAPHTHOFLAVONE, Method: PREINCUBATION): inactive; negative
mutagenic call (Test System: AMES SALMONELLA TYPHIMURIUM, Strain/Indicator: TA102, Metabolic Activation: RAT, LIVER, S-9, AROCLOR 1254 (1 OR 2 MG), Method: STANDARD PLATE): inactive; negative
mutagenic call (Test System: AMES SALMONELLA TYPHIMURIUM, Strain/Indicator: TA102, Metabolic Activation: RAT, LIVER, S-9, AROCLOR 1254, Method: STANDARD PLATE): inactive; negative
mutagenic call (Test System: AMES SALMONELLA TYPHIMURIUM, Strain/Indicator: TA104, Metabolic Activation: NONE, Method: PREINCUBATION): inactive; negative
mutagenic call (Test System: AMES SALMONELLA TYPHIMURIUM, Strain/Indicator: TA104, Metabolic Activation: RAT LIVER S-9, PHENOBARBITAL AND BETA-NAPHTHOFLAVONE, Method: PREINCUBATION): inactive; negative
mutagenic call (Test System: AMES SALMONELLA TYPHIMURIUM, Strain/Indicator: TA1530, Metabolic Activation: NONE, Method: STANDARD PLATE): active; positive
mutagenic call [3]: inactive; negative
mutagenic call (Test System: AMES SALMONELLA TYPHIMURIUM, Strain/Indicator: TA1535, Metabolic Activation: RAT LIVER S-9, PHENOBARBITAL AND BETA-NAPHTHOFLAVONE, Method: PREINCUBATION): inactive; negative
mutagenic call (Test System: AMES SALMONELLA TYPHIMURIUM, Strain/Indicator: TA1535, Metabolic Activation: RAT, LIVER, S-9, AROCLOR 1254, Method: PREINCUBATION): inactive; negative
mutagenic call (Test System: AMES SALMONELLA TYPHIMURIUM, Strain/Indicator: TA1537, Metabolic Activation: RAT LIVER S-9, PHENOBARBITAL AND BETA-NAPHTHOFLAVONE, Method: PREINCUBATION): inactive; negative
mutagenic call (Test System: AMES SALMONELLA TYPHIMURIUM, Strain/Indicator: TA1537, Metabolic Activation: RAT, LIVER, S-9, AROCLOR 1254, Method: PREINCUBATION): inactive; negative
mutagenic call (Test System: AMES SALMONELLA TYPHIMURIUM, Strain/Indicator: TA2638, Metabolic Activation: NONE, Method: STANDARD PLATE): active; positive
mutagenic call (Test System: E. COLI, Strain/Indicator: WP2 (PKM101), Metabolic Activation: NONE, Method: STANDARD PLATE): active; positive
mutagenic call (Test System: E. COLI, Strain/Indicator: WP2 UVRA (PKM101), Metabolic Activation: NONE, Method: STANDARD PLATE): active; positive
mutagenic call (Test System: E.COLI, Strain/Indicator: WP2UVRA/PKM101, Metabolic Activation: NONE, Method: PREINCUBATION): inactive; negative
mutagenic call (Test System: E.COLI, Strain/Indicator: WP2UVRA/PKM101, Metabolic Activation: RAT LIVER S-9, PHENOBARBITAL AND BETA-NAPHTHOFLAVONE, Method: PREINCUBATION): inactive; negative
mutagenic call (Test System: E.COLI, Strain/Indicator: WP2UVRA, Metabolic Activation: NONE, Method: PREINCUBATION): inactive; negative
mutagenic call (Test System: E.COLI, Strain/Indicator: WP2UVRA, Metabolic Activation: RAT LIVER S-9, PHENOBARBITAL AND BETA-NAPHTHOFLAVONE, Method: PREINCUBATION): inactive; negative

CC(C)N=C(NC(C)C)OCc1ccc([N+](=O)[O-])cc1
mutagenic call [1]: active; positive
mutagenic call (Test System: AMES SALMONELLA TYPHIMURIUM, Strain/Indicator: TA98, Metabolic Activation: RAT, LIVER, S-9, PCB, Method: PREINCUBATION): active; positive
mutagenic call [2]: active; positive
mutagenic call (Test System: AMES SALMONELLA TYPHIMURIUM, Strain/Indicator: TA100, Metabolic Activation: RAT, LIVER, S-9, PCB, Method: PREINCUBATION): active; positive

COC(=O)CCCN(N=O)C(N)=O
mutagenic call (Test System: E. COLI B, Strain/Indicator: H/R30R, Metabolic Activation: NONE): active; positive
mutagenic call (Test System: E. COLI B, Strain/Indicator: HS30R, Metabolic Activation: NONE): active; positive
